Data published in patent publication US11946094B2, “Combination therapies and methods of use thereof” (Augusta University Research Institute, Inc., priority 2017, dated 2024).
Entries after “also recorded” stand apart in the source; their conditions may differ.

Each compound was assayed on OVCAR-8 cells (assay: Drug-siRNA combination screen: 346-compound anticancer library at 100 nM, CCK-8 viability). Conditions: OVCAR-8; drug 100 nM plus siRNA knockdown of each of 18 genes; distance VAB−VA×VB in SD; single gene contributes at most +5 / −5; negative = synergy, positive = antagonism.

SMILES	Score (sum of observed SD values for 18 genes)
C[C@H](NC(=O)Cc1cc(F)cc(F)c1)C(=O)N[C@@H]1C(=O)N(C)c2ccccc2-c2ccccc21 [0YO-1027]	−38.72 SD
COc1cc2c(cc1O)CC[C@@H]1[C@@H]2CC[C@]2(C)[C@@H](O)CC[C@@H]12 [2-Methoxyestradiol]	−31.84 SD
Cn1cnc(N)c2ncnc1-2 [3-Methyladenine]	−24.92 SD
CO[C@H]1/C=C\C=C(/C)C(=O)NC2=CC(=O)C(NCCN(C)C)=C(C[C@@H](C)C[C@H](OC)[C@H](O)[C@@H](C)/C=C(\C)[C@@H]1OC(N)=O)C2=O.Cl [17 - DMAG HCI]	19.7 SD
C=CCNC1=C2C[C@@H](C)C[C@H](OC)[C@H](O)[C@@H](C)/C=C(\C)[C@H](OC(N)=O)[C@@H](OC)/C=C\C=C(/C)C(=O)NC(=CC1=O)C2=O [17-AAG]	−6.69 SD
N#Cc1c(O)c2c(-c3ccc(-c4ccccc4O)cc3)csc2[nH]c1=O [A-769662]	−22.81 SD
CN(C)CC[C@H](CSc1ccccc1)Nc1ccc(S(=O)(=O)NC(=O)c2ccc(N3CCN(Cc4ccccc4-c4ccc(Cl)cc4)CC3)cc2)cc1[N+](=O)[O-] [ABT-737]	−5.9 SD
COc1ccc(S(=O)(=O)Nc2cccnc2Nc2ccc(O)cc2)cc1 [ABT-751]	−13.93 SD
CN(C)Cc1ccc(-c2nc3cccc4c3n2CCNC4=O)cc1 [AG14361]	2.72 SD
Cc1csc(-c2nnc(Nc3ccc(Oc4ncccc4-c4ccnc(N)n4)cc3)c3ccccc23)c1 [AMG 900]	11.64 SD
O=C(/C=C/c1cccnc1)NCCCCC1CCN(C(=O)c2ccccc2)CC1 [APO866]	7.8 SD
CC(C)[C@H](C(=O)Nc1ccc(C(=O)NO)cc1)c1ccccc1 [AR-42]	−36.88 SD
CN[C@@H](C)C(=O)N[C@H]1CN(C(=O)CC(C)C)CC[C@H]2CC[C@@H](C(=O)NC(c3ccccc3)c3ccccc3)N2C1=O [AT406]	−38.03 SD
O=C(NC1CCNCC1)c1n[nH]cc1NC(=O)c1c(Cl)cccc1Cl [AT7519]	−24.02 SD
O=C(Nc1c[nH]nc1-c1nc2ccc(CN3CCOCC3)cc2[nH]1)NC1CC1 [AT9283]	12.54 SD
CCNC(=O)c1noc(-c2cc(C(C)C)c(O)cc2O)c1-c1ccc(CN2CCOCC2)cc1 [AUY922]	8.46 SD
Cc1ccc(NC(=O)c2cccc(C(C)(C)C#N)c2)cc1Nc1ccc2ncn(C)c(=O)c2c1 [AZ628]	−43.85 SD
NC(=O)Nc1cc(-c2cccc(F)c2)sc1C(=O)N[C@H]1CCCNC1 [AZD7762]	−43.68 SD
COc1ccc(-c2ccc3c(N4CCOC[C@@H]4C)nc(N4CCOC[C@@H]4C)nc3n2)cc1CO [AZD8055]	-51.01 SD
CN(C)C/C=C/C(=O)Nc1cc2c(Nc3ccc(F)c(Cl)c3)ncnc2cc1O[C@H]1CCOC1 [Afatinib]	-54.76 SD
COc1cc(Nc2ncc3c(n2)-c2ccc(Cl)cc2C(c2c(F)cccc2OC)=NC3)ccc1C(=O)O [Alisertib]	−2.8 SD

SMILES	Score (sum of observed SD values for 18 genes)
CCC1(c2ccc(N)cc2)CCC(=O)NC1=O (centres unmarked) [Aminoglutethimide]	−9.32 SD
S=C(NCc1ccc2c(c1)OCO2)N1CCN(c2ncnc3c2oc2ccccc23)CC1 [Amuvatinib]	12.37 SD
Cl.O=C1CN2Cc3c(ccc(Cl)c3Cl)N=C2N1 [Anagrelide HCI]	−8.01 SD
CC(=O)Nc1ccc(OC[C@](C)(O)C(=O)Nc2ccc([N+](=O)[O-])c(C(F)(F)F)c2)cc1 [Andarine]	−7.28 SD
C[C@@H](O[C@H]1OCCN(Cc2n[nH]c(=O)[nH]2)[C@H]1c1ccc(F)cc1)c1cc(C(F)(F)F)cc(C(F)(F)F)c1 [Aprepitant]	−23.29 SD
Cn1cnc([N+](=O)[O-])c1Sc1ncnc2nc[nH]c12 [Azathioprine]	−28.48 SD
Cc1ccc(S(=O)(=O)/C=C/C#N)cc1 [BAY 11-7082]	−5.7 SD
Cn1c(=O)n(-c2ccc(C(C)(C)C#N)cc2)c2c3cc(-c4cnc5ccccc5c4)ccc3ncc21 [BEZ235]	−35.65 SD
CC[C@@H]1C(=O)N(C)c2cnc(Nc3ccc(C(=O)NC4CCN(C)CC4)cc3OC)nc2N1C1CCCC1 [BI2536]	12.6 SD
C/C(=C\C(=O)Nc1ccccc1C(=O)O)c1ccc2ccccc2c1 [BIBR 1532]	−16.4 SD
COc1c(C)cnc(Cn2cnc3c(Cl)nc(N)nc32)c1C [BIIB021]	−33.01 SD
CCOc1ccn(-c2ccc(F)cc2)c(=O)c1C(=O)Nc1ccc(Oc2ccnc(N)c2Cl)c(F)c1 [BMS 777607]	−14.73 SD
Nc1nccc(Oc2ccc(NC(=O)c3c[nH]cc(-c4ccc(F)cc4)c3=O)cc2F)c1Cl [BMS 794833]	−23.46 SD
Cc1c(NC(=O)OC[C@@H]2COCCN2)cn2ncnc(Nc3ccc4c(cnn4Cc4cccc(F)c4)c3)c12 [BMS-599626]	−40.89 SD
C[C@H]1COC2(CCN(c3nc(=O)c4cc(C(F)(F)F)cc([N+](=O)[O-])c4s3)CC2)O1 [BTZ043]	−13.06 SD
O=C(NCCCNc1nc(Nc2cccc(NC(=O)N3CCCC3)c2)ncc1I)c1cccs1 [BX-795]	−14.94 SD
CCN(CCCOc1ccc2c(Nc3cc(CC(=O)Nc4cccc(F)c4)n[nH]3)ncnc2c1)CCOP(=O)(O)O [Barasertib]	20.03 SD
C=C(c1ccc(C(=O)O)cc1)c1cc2c(cc1C)C(C)(C)CCC2(C)C [Bexarotene]	−1.35 SD
CC(O)(CS(=O)(=O)c1ccc(F)cc1)C(=O)Nc1ccc(C#N)c(C(F)(F)F)c1 (centres unmarked) [Bicalutamide]	−23.24 SD
COc1cc(Nc2c(C#N)cnc3cc(OCCCN4CCN(C)CC4)c(OC)cc23)c(Cl)cc1Cl [Bosutinib]	−23.5 SD
Cc1cc2c(F)c(Oc3ncnn4cc(OC[C@@H](C)O)c(C)c34)ccc2[nH]1 [Brivanib]	−14.38 SD

SMILES	Score (sum of observed SD values for 18 genes)
Nc1cc(C(F)(F)F)c(-c2cc(N3CCOCC3)nc(N3CCOCC3)n2)cn1 [Buparlisib]	8.79 SD
CC[C@H](Nc1ncnc2[nH]cnc12)c1nc2cccc(F)c2c(=O)n1-c1ccccc1 [CAL-101]	−27.89 SD
CN1CCN(c2cccc(Nc3nc4c(-c5ccc(S(C)(=O)=O)cc5)cccn4n3)c2)CC1 [CEP33779]	−27.66 SD
CS(=O)(=O)N1CCc2c(-c3cnc(N)nc3)nc(N3CCOCC3)nc21 [CH5132799]	15.96 SD
Cc1c[nH]c(-c2cnc(NCCNc3ccc(C#N)cn3)nc2-c2ccc(Cl)cc2Cl)n1 [CHIR-99021]	−2.4 SD
O=C(NOCC1CC1)c1ccc(F)c(F)c1Nc1ccc(I)cc1Cl [CI-1040]	−45.66 SD
COc1cc2ncnc(-n3nc(-c4ccccn4)nc3N)c2cc1OC [CP-466722]	2.79 SD
C#Cc1cccc(Nc2ncnc3cc(OC)c(OCCCCCCC(=O)NO)cc23)c1 [CUDC-101]	−46.83 SD
Cc1nc(N)sc1-c1ccnc(Nc2ccc(N3CCOCC3)cc2)n1 [CYC116]	−28.81 SD
Cc1ccc([C@@H]2O[C@H](CO)[C@@H](O)[C@H](O)[C@H]2O)cc1Cc1ccc(-c2ccc(F)cc2)s1 [Canagliflozin]	−25.46 SD
N.N.O=C([O-])C1(C(=O)[O-])CCC1.[Pt+2] [Carboplatin]	−24.62 SD
CCCCCCNC(=O)n1cc(F)c(=O)[nH]c1=O [Carmofur]	−18.23 SD
COc1cc2c(Oc3ccc4[nH]c(C)cc4c3F)ncnc2cc1OCCCN1CCCC1 [Cediranib]	−11.55 SD
Cc1cc(O)c2c(c1)C(=O)c1cccc(O)c1C2=O [Chrysophanol]	−5.16 SD
N.N.[Cl][Pt][Cl] [Cisplatin]	−21 SD
COC1=C(OC)C(=O)C(C/C=C(\C)CC/C=C(\C)CC/C=C(\C)CC/C=C(\C)CC/C=C(\C)CC/C=C(\C)CC/C=C(\C)CC/C=C(\C)CC/C=C(\C)CCC=C(C)C)=C(C)C1=O [Coenzyme Q10]	−4.69 SD
CC1(COc2ccc3c(c2)ncn3-c2ccc3cccc(N4CCC(N)CC4)c3n2)COC1 [Crenolanib]	−18.09 SD
CC1=C2C[C@H]3[C@@H](CC=C4C[C@@H](O)CC[C@@]43C)[C@@H]2CC[C@]12O[C@@H]1C[C@H](C)CN[C@H]1[C@H]2C [Cyclopamine]	3.03 SD
NC(=O)CC[C@@H](N)C(=O)O [D-glutamine]	0.27 SD
C[C@H](NC(=O)Cc1cc(F)cc(F)c1)C(=O)N[C@H](C(=O)OC(C)(C)C)c1ccccc1 [DAPT-(GSI-IX)]	12.69 SD

Same assay, conditions: OVCAR-8; drug 100 nM; panel of 18 siRNA knockdowns

SMILES	synergy / antagonism of drug with gene knockdowns, in words
CC(C)[C@H](C(=O)Nc1ccc(C(=O)NO)cc1)c1ccccc1 [AR-42]	mostly synergistic
Cc1ccc(NC(=O)c2cccc(C(C)(C)C#N)c2)cc1Nc1ccc2ncn(C)c(=O)c2c1 [AZ628]	synergistic with knockdown of ten genes
NC(=O)Nc1cc(-c2cccc(F)c2)sc1C(=O)N[C@H]1CCCNC1 [AZD7762]	Frequently among the top synergizing pairs; also recorded: high level of synergism
COc1c(C)cnc(Cn2cnc3c(Cl)nc(N)nc32)c1C [BIIB021]	Frequently among the top synergizing pairs
Cc1c(NC(=O)OC[C@@H]2COCCN2)cn2ncnc(Nc3ccc4c(cnn4Cc4cccc(F)c4)c3)c12 [BMS-599626]	significant synergy with nine or more genes
O=C(NOCC1CC1)c1ccc(F)c(F)c1Nc1ccc(I)cc1Cl [CI-1040]	among the top synergistic compounds
C#Cc1cccc(Nc2ncnc3cc(OC)c(OCCCCCCC(=O)NO)cc23)c1 [CUDC-101]	mostly synergistic

Same assay, conditions: OVCAR-8; drug 100 nM; siRNA knockdown

SMILES	number of genes (of 18) whose knockdown synergizes with the drug
CC(C)[C@H](C(=O)Nc1ccc(C(=O)NO)cc1)c1ccccc1 [AR-42]	10 genes
C#Cc1cccc(Nc2ncnc3cc(OC)c(OCCCCCCC(=O)NO)cc23)c1 [CUDC-101]	11 genes
